Assay results as given in ChEMBL document CHEMBL3885881, “DrugMatrix”.

Species: Rattus norvegicus
Experiment: DrugMatrix - Regimen: Daily Repeat
Type: toxicity, organism-based, Sprague-Dawley
Set-up: regimen Daily Repeat, gender Male, age 6-8 weeks
Settings: in vivo, po, route oral GAVAGE, […]; for HEMOGLOBIN / LYMPHOCYTE / MEAN CORPUSCULAR HEMOGLOBIN CONCENTRATION / MEAN CORPUSCULAR VOLUME / NUCLEATED RED BLOOD CELLS / PLATELET COUNT / ABSOLUTE BASOPHIL / ABSOLUTE EOSINOPHIL / ABSOLUTE LYMPHOCYTE / ABSOLUTE MONOCYTE / ABSOLUTE SEGMENTED NEUTROPHIL / BASOPHIL / EOSINOPHIL / ERYTHROCYTE COUNT / HEMATOCRIT: tissue Blood; for ALANINE AMINOTRANSFERASE / ALBUMIN / ALKALINE PHOSPHATASE / ASPARTATE AMINOTRANSFERASE / BLOOD UREA NITROGEN / CARBON DIOXIDE / CREATINE PHOSPHOKINASE / CREATININE / LACTATE DEHYDROGENASE / TOTAL BILIRUBIN / TOTAL PROTEIN / URIC ACID: tissue Plasma
[1] = 215 mg/kg, 72 h, dose level M2, time 3 day
[2] = 215 mg/kg, 120 h, dose level M2, time 5 day
[3] = 430 mg/kg, 72 h, dose level M3, time 3 day
[4] = 430 mg/kg, 120 h, dose level M3, time 5 day
[5] = 860 mg/kg, 72 h, dose level High, time 3 day
[6] = 860 mg/kg, dose level High, time 7 day

CC(C)OC(=O)C(C)(C)Oc1ccc(C(=O)c2ccc(Cl)cc2)cc1 [FENOFIBRATE]
HEMOGLOBIN [1]: 13.3 G/DL
LYMPHOCYTE [1]: 89.67%
MEAN CORPUSCULAR HEMOGLOBIN CONCENTRATION [1]: 39.2 G/DL
MEAN CORPUSCULAR VOLUME [1]: 61.5 fL
NUCLEATED RED BLOOD CELLS [1]: 0 /100WBC
PLATELET COUNT [1]: 1279.67 x10E3/uL
ALANINE AMINOTRANSFERASE [1]: 84.33 u/L
ALBUMIN [1]: 4.4 G/DL
ALKALINE PHOSPHATASE [1]: 436.33 u/L
ASPARTATE AMINOTRANSFERASE [1]: 108 u/L
BLOOD UREA NITROGEN [1]: 11.33 mg/dL
CARBON DIOXIDE [1]: 28.33 mmol/L
CREATINE PHOSPHOKINASE [1]: 307 u/L
CREATININE [1]: 0.23 mg/dL
LACTATE DEHYDROGENASE [1]: 227 u/L
TOTAL BILIRUBIN [1]: 0.1 mg/dL
TOTAL PROTEIN [1]: 5.3 G/DL
URIC ACID [1]: 1.47 mg/dL
ABSOLUTE BASOPHIL [2]: 0 CELLS/uL
ABSOLUTE EOSINOPHIL [2]: 0 CELLS/uL
ABSOLUTE LYMPHOCYTE [2]: 6815.67 CELLS/uL
ABSOLUTE MONOCYTE [2]: 96.33 CELLS/uL
ABSOLUTE SEGMENTED NEUTROPHIL [2]: 721.33 CELLS/uL
BASOPHIL [2]: 0%
EOSINOPHIL [2]: 0%
ERYTHROCYTE COUNT [2]: 5.68 x10E6/uL
HEMATOCRIT [2]: 34.5%
HEMOGLOBIN [2]: 13.47 G/DL
LYMPHOCYTE [2]: 90%
MEAN CORPUSCULAR HEMOGLOBIN CONCENTRATION [2]: 39.07 G/DL
MEAN CORPUSCULAR VOLUME [2]: 60.77 fL
NUCLEATED RED BLOOD CELLS [2]: 0 /100WBC
PLATELET COUNT [2]: 1144.67 x10E3/uL
ALANINE AMINOTRANSFERASE [2]: 92.67 u/L
ALBUMIN [2]: 4.8 G/DL
ALKALINE PHOSPHATASE [2]: 542 u/L
ASPARTATE AMINOTRANSFERASE [2]: 108.67 u/L
BLOOD UREA NITROGEN [2]: 9 mg/dL
CARBON DIOXIDE [2]: 35.67 mmol/L
CREATINE PHOSPHOKINASE [2]: 436 u/L
CREATININE [2]: 0.23 mg/dL
LACTATE DEHYDROGENASE [2]: 185.67 u/L
TOTAL BILIRUBIN [2]: 0.1 mg/dL
TOTAL PROTEIN [2]: 5.87 G/DL
URIC ACID [2]: 0.93 mg/dL
ABSOLUTE BASOPHIL [3]: 0 CELLS/uL
ABSOLUTE EOSINOPHIL [3]: 35 CELLS/uL
ABSOLUTE LYMPHOCYTE [3]: 8585.33 CELLS/uL
ABSOLUTE MONOCYTE [3]: 165.67 CELLS/uL
ABSOLUTE SEGMENTED NEUTROPHIL [3]: 847.33 CELLS/uL
BASOPHIL [3]: 0%
EOSINOPHIL [3]: 0.33%
ERYTHROCYTE COUNT [3]: 5.9 x10E6/uL
HEMATOCRIT [3]: 37.27%
LYMPHOCYTE [3]: 89.33%
MEAN CORPUSCULAR HEMOGLOBIN CONCENTRATION [3]: 38.8 G/DL
MEAN CORPUSCULAR VOLUME [3]: 63.17 fL
NUCLEATED RED BLOOD CELLS [3]: 0 /100WBC
PLATELET COUNT [3]: 1091.33 x10E3/uL
ALANINE AMINOTRANSFERASE [3]: 125.33 u/L
ALBUMIN [3]: 3.57 G/DL
ALKALINE PHOSPHATASE [3]: 509.67 u/L
ASPARTATE AMINOTRANSFERASE [3]: 123.67 u/L
BLOOD UREA NITROGEN [3]: 12 mg/dL
CARBON DIOXIDE [3]: 25.67 mmol/L
CREATINE PHOSPHOKINASE [3]: 211 u/L
CREATININE [3]: 0.21 mg/dL
LACTATE DEHYDROGENASE [3]: 138.33 u/L
TOTAL BILIRUBIN [3]: 0.23 mg/dL
TOTAL PROTEIN [3]: 4.8 G/DL
URIC ACID [3]: 0.57 mg/dL
ABSOLUTE BASOPHIL [4]: 0 CELLS/uL
ABSOLUTE EOSINOPHIL [4]: 84 CELLS/uL
ABSOLUTE LYMPHOCYTE [4]: 7042 CELLS/uL
ABSOLUTE MONOCYTE [4]: 80.5 CELLS/uL
ABSOLUTE SEGMENTED NEUTROPHIL [4]: 843.5 CELLS/uL
BASOPHIL [4]: 0%
EOSINOPHIL [4]: 1%
ERYTHROCYTE COUNT [4]: 5.34 x10E6/uL
HEMATOCRIT [4]: 33.8%
HEMOGLOBIN [4]: 13.3 G/DL
LYMPHOCYTE [4]: 87.5%
MEAN CORPUSCULAR HEMOGLOBIN CONCENTRATION [4]: 39.35 G/DL
MEAN CORPUSCULAR VOLUME [4]: 63.4 fL
NUCLEATED RED BLOOD CELLS [4]: 0 /100WBC
PLATELET COUNT [4]: 1064.5 x10E3/uL
ALANINE AMINOTRANSFERASE [4]: 87.5 u/L
ALBUMIN [4]: 4.65 G/DL
ALKALINE PHOSPHATASE [4]: 418.5 u/L
ASPARTATE AMINOTRANSFERASE [4]: 104.5 u/L
BLOOD UREA NITROGEN [4]: 13 mg/dL
CARBON DIOXIDE [4]: 27 mmol/L
CREATINE PHOSPHOKINASE [4]: 307 u/L
CREATININE [4]: 0.31 mg/dL
LACTATE DEHYDROGENASE [4]: 104 u/L
TOTAL BILIRUBIN [4]: 0.15 mg/dL
TOTAL PROTEIN [4]: 5.5 G/DL
URIC ACID [4]: 0.6 mg/dL
ABSOLUTE BASOPHIL [5]: 0 CELLS/uL
ABSOLUTE EOSINOPHIL [5]: 44 CELLS/uL
ABSOLUTE LYMPHOCYTE [5]: 10937 CELLS/uL
ABSOLUTE MONOCYTE [5]: 410.5 CELLS/uL
ABSOLUTE SEGMENTED NEUTROPHIL [5]: 2833.5 CELLS/uL
BASOPHIL [5]: 0%
EOSINOPHIL [5]: 0.25%
ERYTHROCYTE COUNT [5]: 6.03 x10E6/uL
HEMATOCRIT [5]: 37.23%
HEMOGLOBIN [5]: 15.3 G/DL
LYMPHOCYTE [5]: 75.75%
MEAN CORPUSCULAR HEMOGLOBIN CONCENTRATION [5]: 41.35 G/DL
MEAN CORPUSCULAR VOLUME [5]: 61.7 fL
NUCLEATED RED BLOOD CELLS [5]: 0 /100WBC
PLATELET COUNT [5]: 961.5 x10E3/uL
ALANINE AMINOTRANSFERASE [5]: 233.5 u/L
ALBUMIN [5]: 4.15 G/DL
ALKALINE PHOSPHATASE [5]: 474.75 u/L
ASPARTATE AMINOTRANSFERASE [5]: 132.75 u/L
BLOOD UREA NITROGEN [5]: 13 mg/dL
CARBON DIOXIDE [5]: 29 mmol/L
CREATINE PHOSPHOKINASE [5]: 233.75 u/L
CREATININE [5]: 0.14 mg/dL
LACTATE DEHYDROGENASE [5]: 160.5 u/L
TOTAL BILIRUBIN [5]: 0.28 mg/dL
TOTAL PROTEIN [5]: 5.55 G/DL
ABSOLUTE BASOPHIL [6]: 0 CELLS/uL
ABSOLUTE EOSINOPHIL [6]: 0 CELLS/uL
ABSOLUTE LYMPHOCYTE [6]: 6863 CELLS/uL
ABSOLUTE MONOCYTE [6]: 370.5 CELLS/uL
ABSOLUTE SEGMENTED NEUTROPHIL [6]: 5116.5 CELLS/uL
BASOPHIL [6]: 0%
EOSINOPHIL [6]: 0%
ERYTHROCYTE COUNT [6]: 6.05 x10E6/uL
HEMATOCRIT [6]: 35.15%
HEMOGLOBIN [6]: 13.8 G/DL
LYMPHOCYTE [6]: 55.5%
MEAN CORPUSCULAR HEMOGLOBIN CONCENTRATION [6]: 39.4 G/DL
MEAN CORPUSCULAR VOLUME [6]: 57.6 fL
NUCLEATED RED BLOOD CELLS [6]: 2 /100WBC
PLATELET COUNT [6]: 1590.5 x10E3/uL
ALANINE AMINOTRANSFERASE [6]: 283.5 u/L
ALBUMIN [6]: 3 G/DL
ALKALINE PHOSPHATASE [6]: 812 u/L
ASPARTATE AMINOTRANSFERASE [6]: 328 u/L
BLOOD UREA NITROGEN [6]: 63 mg/dL
CARBON DIOXIDE [6]: 25 mmol/L
CREATINE PHOSPHOKINASE [6]: 1456.5 u/L
CREATININE [6]: 0.58 mg/dL
LACTATE DEHYDROGENASE [6]: 638 u/L
TOTAL BILIRUBIN [6]: 2.9 mg/dL
TOTAL PROTEIN [6]: 5.7 G/DL
